One experiment concerns the target T1, KRas^G12D (Homo sapiens, UniProt P01116, G12D).
T1 construct: Biotinylated KRas (corresponding to amino acids 1-169, produced at Accelegan Inc.); biotin (biotinylated); purchased Accelegan Inc
Briefly: KRas binding assay (TR-FRET tracer displacement), KRas G12D. On the technique in general: TR-FRET usually uses a lanthanide donor and a delayed reading to cut background.

The target of a further experiment is T2, KRas^G12R (Homo sapiens, UniProt P01116, G12R).
T2 construct: Biotinylated KRas (corresponding to amino acids 1-169, produced at Accelegan Inc.); biotin (biotinylated); purchased Accelegan Inc
Briefly: KRas binding assay (TR-FRET tracer displacement), KRas G12R.

The target in the next experiment is T3, KRas^G12V (Homo sapiens, UniProt P01116, G12V).
T3 construct: Biotinylated KRas (corresponding to amino acids 1-169, produced at Accelegan Inc.); biotin (biotinylated); purchased Accelegan Inc
Briefly: KRas binding assay (TR-FRET tracer displacement), KRas G12V.

Experiment [1] deals with KRas-mediated phosphorylation of ERK in AsPC-1 cells. Briefly: Inhibition of KRas-mediated phosphorylation of ERK (Cisbio HTRF pERK), AsPC-1 cells. Format: cell-based. The settings on record: Homo sapiens; for IC50: ASPC1, AsPC-1 cells, HTRF pERK; for inhibition at 0.1 µM: ASPC1, 3 h, single point, 100 nM compound, 3 hrs, AsPC-1 cells. The procedure, abridged: (§1)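 Min control wells contained 0.2 uM Trametinib, while test compounds ran as 10 doses (3-fold, top 10 uM; 0.8% DMSO final) on cells for 3 hrs. After 40 mins lysis at 4° C, lysates were probed with HTRF antibodies for 2 hrs at room temperature.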

Experiment [2] has as its system KRas-mediated phosphorylation of ERK in H727 cells. Briefly: Inhibition of KRas-mediated phosphorylation of ERK (Cisbio HTRF pERK), H727 cells. It is filed as cell-based. The settings on record: Homo sapiens; for IC50: NCI-H727, H727 cells, HTRF pERK; for inhibition at 0.1 µM: NCI-H727, 3 h, single point, 100 nM compound, 3 hrs, H727 cells. Summed up: as §1
For experiment [3], the system named is KRas-mediated phosphorylation of ERK in A549 cells. Briefly: Inhibition of KRas-mediated phosphorylation of ERK (Cisbio HTRF pERK), A549 cells. Format: cell-based. The settings on record: Homo sapiens; for inhibition at 0.1 µM: A549, 3 h, single point, 100 nM compound, 3 hrs; for IC50: HTRF pERK. As to the method: (§2) Inhibition of KRas Phosphorylation of ERK (HTRF) by Exemplary Compounds of Formula (I) Cisbio HTRF Advanced PERK Assay Catalog #64[…] […] Add 10 mL of media to stop trypsinizing. Pipette the cells into a conical bottom 50 mL centrifuge tube and centrifuge 5 min×1000 rpm. […] Re-suspend the cell pellet in media, take a cell count, and then adjust the cell density using fresh media. […] Seed 6,000 cells into cell culture plate with 50 μL media. […] Use Tecan to complete the compound addition. Compounds start from 10 uM top, 3-fold dilution, and 10 doses. The final DMSO concentration is 0.8%. Dispensed 0.2 uM Trametinib as Min control. […] Incubate cell plate for 3 hrs in the incubator. […] Dilute 1 volume of 4× lysis buffer with 3 volumes of deionized water. […] Keep lysis buffer on the ice. […] At the end of the compound treatment, flick-off the media. […] Add 35 μL of lysis buffer per well using a Multidrop Combi. Then place on a plate agitator shaking at 300 rpm at 4° C. for 40 mins. […] Make up the HTRF antibody buffer. For each assay plate, mix 50 μL of d2-conjugate antibody with 950 μL of detection buffer. Similarly, mix 50 μL of Cryptate antibody with 950 μL of detection buffer. Then mix the two diluted antibodies together. […] Dispense 3.4 μL the antibody buffer to wells of an empty assay plate. Seal the plate and centrifuge plate 30 sec×1000 rpm. […] At the end of the 4° C. lysis, centrifuge the lysate plates 3 mins×1500 rpm. […] Use the Bravo to transfer 13.6 μL of lysate from cell culture plate to assay plate. Then incubate assay plate for 2 hrs at room temperature. 8. At the end of incubation, read plate on the Envision after centrifuging plate 30 sec×1000 rpm.

Experiment [4] relates to KRas-mediated phosphorylation of ERK in H358 cells. Briefly: Inhibition of KRas-mediated phosphorylation of ERK (Cisbio HTRF pERK), H358 cells. Format: cell-based. The settings on record: Homo sapiens; for inhibition at 0.1 µM: NCI-H358, 3 h, single point, 100 nM compound, 3 hrs; for IC50: NCI-H358, HTRF pERK. As to the method: as §2
The subject of experiment [5] is KRas-mediated phosphorylation of ERK in H460 cells. Briefly: Inhibition of KRas-mediated phosphorylation of ERK (Cisbio HTRF pERK), H460 cells. It is filed as cell-based. The settings on record: Homo sapiens; for inhibition at 0.1 µM: NCI-H460, 3 h, single point, 100 nM compound, 3 hrs. As to the method:
as §2

In experiment [6] the test system is KRas-mediated phosphorylation of ERK in HCT116 cells. Briefly: Inhibition of KRas-mediated phosphorylation of ERK (Cisbio HTRF pERK), HCT116 cells. Format: cell-based. The settings on record: Homo sapiens; for inhibition at 0.1 µM: HCT-116, 3 h, single point, 100 nM compound, 3 hrs. As to the method: as §2

The text below walks through data of patent publication US20260015350A1, “AZAQUINAZOLINE PAN-KRAS INHIBITORS” (Mirati Therapeutics, Inc., priority 2022, published 2026).

As usually defined, the IC50 is the concentration needed to halve the response being measured. A high value points to lower potency. By inhibition is commonly meant the drop in the measured response relative to a control, in per cent.

T2 sequence (P01116 1-169 isoform P01116-2 G12R): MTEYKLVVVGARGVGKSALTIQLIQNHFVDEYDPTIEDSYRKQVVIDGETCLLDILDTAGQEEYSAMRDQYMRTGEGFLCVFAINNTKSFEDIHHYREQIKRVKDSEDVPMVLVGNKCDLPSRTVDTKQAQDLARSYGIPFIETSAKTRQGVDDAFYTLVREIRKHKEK
T1 sequence (P01116 1-169 isoform P01116-2 G12D): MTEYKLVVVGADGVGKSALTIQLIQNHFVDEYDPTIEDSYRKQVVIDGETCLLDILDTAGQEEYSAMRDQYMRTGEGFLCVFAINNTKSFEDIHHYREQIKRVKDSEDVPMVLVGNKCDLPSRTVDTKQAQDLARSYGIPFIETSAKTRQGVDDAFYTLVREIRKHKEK
T3 sequence (P01116 1-169 isoform P01116-2 G12V): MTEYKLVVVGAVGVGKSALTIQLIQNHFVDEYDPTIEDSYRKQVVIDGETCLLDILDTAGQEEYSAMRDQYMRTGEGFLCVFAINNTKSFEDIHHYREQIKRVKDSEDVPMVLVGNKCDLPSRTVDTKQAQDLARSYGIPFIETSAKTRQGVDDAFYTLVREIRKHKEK

In the case of `CCc1c(F)ccc2cc(O)cc(-c3ncc4c(N5CCCC6(CCC6)C5)nc(OC[C@@]56CCCN5C[C@H](F)C6)nc4c3F)c12` [Example 549, 5-ethyl-6-fluoro-4-(8-fluoro-2-(((2R,7aS)-2-fluorotetrahydro-1H-pyrrolizin-7a(5H)-yl)methoxy)-4-(6-azaspiro[3.5]nonan-6-yl)pyrido[4,3-d]pyrimidin-7-yl)naphthalen-2-ol], the IC50 was 7 nM on KRas^G12D; 8 nM on KRas^G12R; 4 nM on KRas^G12V; 328 nM in [1]; 208 nM in experiment [2]. For the same molecule, the figures for the inhibition at 0.1 µM in [3] and in experiment [4] were -6% and 3%, respectively.

Consider `CCc1c(F)ccc2cc(O)cc(-c3ncc4c(NCC5(C)CC(=O)NC5=O)nc(OC[C@@]56CCCN5C[C@H](F)C6)nc4c3F)c12` (stereo partly drawn) [Example 566, 3-(((7-(8-ethyl-7-fluoro-3-hydroxynaphthalen-1-yl)-8-fluoro-2-(((2R,7aS)-2-fluorotetrahydro-1H-pyrrolizin-7a(5H)-yl)methoxy)pyrido[4,3-d]pyrimidin-4-yl)amino)methyl)-3-methylpyrrolidine-2,5-dione], for which the IC50 on KRas^G12D was 3 nM; at KRas^G12R, less than 2 nM; on KRas^G12V, 3 nM; in experiment [1] it was 760 nM; in experiment [2] it was 138 nM; in experiment [3], 130 nM. Moreover, the IC50 stood at 47 nM in experiment [5] (NCI-H460, HTRF pERK) and 72 nM in experiment [6] (HCT-116, HTRF pERK).

Turning to `CCc1c(F)ccc2cc(O)cc(-c3ncc4c(N5CCOCC6(CCO6)C5)nc(OC[C@@]56CCCN5C[C@H](F)C6)nc4c3F)c12` (stereo partly drawn) [Example 573, 5-ethyl-6-fluoro-4-(8-fluoro-2-(((2R,7aS)-2-fluorotetrahydro-1H-pyrrolizin-7a(5H)-yl)methoxy)-4-(1,6-dioxa-9-azaspiro[3.6]decan-9-yl)pyrido[4,3-d]pyrimidin-7-yl)naphthalen-2-ol], the IC50 is 12 nM in experiment [1] and 15 nM in [2]. Besides, the inhibition at 0.1 µM in [3] stood at 62%; in experiment [5] it was 92%; in experiment [6] it was 53%; in experiment [4], 94%.

As to `CCc1c(F)ccc2cc(O)cc(-c3ncc4c(N5CCn6cc(C(=O)N(C)C)nc6C5)nc(OC[C@@]56CCCN5C[C@H](F)C6)nc4c3F)c12` [Example 646, 7-(7-(8-ethyl-7-fluoro-3-hydroxynaphthalen-1-yl)-8-fluoro-2-(((2R,7aS)-2-fluorohexahydro-1H-pyrrolizin-7a-yl)methoxy)pyrido[4,3-d]pyrimidin-4-yl)-N,N-dimethyl-5,6,7,8-tetrahydroimidazo[1,2-a]pyrazine-2-carboxamide], the inhibition at 0.1 µM in [1] was -12%; in experiment [2], -6%; in [3], -24%; in experiment [5], -9%; in experiment [6], -9%; in experiment [4], 2%. Moreover, the IC50 in experiment [1] was 8480 nM; in experiment [2], more than 10000 nM.

Take `CCc1c(F)ccc2cc(O)cc(-c3ncc4c(N5CCCn6nc(P(C)(C)=O)cc6C5)nc(OC[C@@]56CCCN5C[C@H](F)C6)nc4c3F)c12` [Example 660, (5-(7-(8-ethyl-7-fluoro-3-hydroxynaphthalen-1-yl)-8-fluoro-2-(((2R,7aS)-2-fluorohexahydro-1H-pyrrolizin-7a-yl)methoxy)pyrido[4,3-d]pyrimidin-4-yl)-5,6,7,8-tetrahydro-4H-pyrazolo[1,5-a][1,4]diazepin-2-yl)dimethylphosphine oxide]: the IC50 is 2 nM at KRas^G12D; 2 nM on KRas^G12R; 7 nM at KRas^G12V; 8030 nM in experiment [1]; more than 10000 nM in [2]. Besides, the inhibition at 0.1 µM in [3] was -41%; in [4], -20%.

`CCNC(=O)c1cc2n(n1)CCCCN(c1nc(OC[C@@]34CCCN3C[C@H](F)C4)nc3c(F)c(-c4cc(O)cc5ccc(F)c(CC)c45)ncc13)C2` [Example 673, N-ethyl-5-(7-(8-ethyl-7-fluoro-3-hydroxynaphthalen-1-yl)-8-fluoro-2-(((2R,7aS)-2-fluorotetrahydro-1H-pyrrolizin-7a(5H)-yl)methoxy)pyrido[4,3-d]pyrimidin-4-yl)-4,5,6,7,8,9-hexahydropyrazolo[1,5-a][1,4]diazocine-2-carboxamide]: the inhibition at 0.1 µM in [1] amounted to 8%; in experiment [2], 53%; in experiment [3] it was 43%; in experiment [5], 8%; in [6] it was 16%; in experiment [4], 88%. Moreover, the IC50 in [1] stood at 115 nM; in [2] it was 21 nM.

`C=C1CN2CCC[C@@]2(COc2nc(N3C[C@@H]4C[C@H](C3)[C@H](O)C4)c3cnc(-c4cc(O)cc5ccc(F)c(CC)c45)c(F)c3n2)C1` [Example 896, (1R,5R,6R)-3-(7-(8-ethyl-7-fluoro-3-hydroxynaphthalen-1-yl)-8-fluoro-2-(((S)-2-methylenetetrahydro-1H-pyrrolizin-7a(5H)-yl)methoxy)pyrido[4,3-d]pyrimidin-4-yl)-3-azabicyclo[3.2.1]octan-6-ol]: the IC50 in experiment [1] stood at 6 nM; in experiment [2] it was 2 nM; in experiment [3] it was 1 nM; in [4], 1 nM.

As for `C=C1CN2CCC[C@]2(COc2nc(N3C[C@@H]4C[C@H](C3)[C@H](O)C4)c3cnc(-c4cc(O)cc5ccc(F)c(CC)c45)c(F)c3n2)C1` [Example 897, (1R,5R,6R)-3-(7-(8-ethyl-7-fluoro-3-hydroxynaphthalen-1-yl)-8-fluoro-2-(((R)-2-methylenetetrahydro-1H-pyrrolizin-7a(5H)-yl)methoxy)pyrido[4,3-d]pyrimidin-4-yl)-3-azabicyclo[3.2.1]octan-6-ol], the IC50 amounted to 32 nM in experiment [1], 12 nM in experiment [2], 5 nM in experiment [3] and 3 nM in experiment [4].

Turning to `CCc1c(F)ccc2cc(O)cc(-c3ncc4c(N5CC6CCC(CC(=O)NC)(C6)C5)nc(OC[C@@]56CCCN5C[C@H](F)C6)nc4c3F)c12` (stereo partly drawn) [Example 914, 2-(3-(7-(8-ethyl-7-fluoro-3-hydroxynaphthalen-1-yl)-8-fluoro-2-(((2R,7aS)-2-fluorotetrahydro-1H-pyrrolizin-7a(5H)-yl)methoxy)pyrido[4,3-d]pyrimidin-4-yl)-3-azabicyclo[3.2.1]octan-1-yl)-N-methylacetamide], the IC50 was 12 nM at KRas^G12D; 5 nM on KRas^G12R; 3 nM on KRas^G12V; 2380 nM in experiment [1]; 1040 nM in [2]; 461 nM in [4].

In the case of `C[C@@]1(O)CCCN(c2nc(OCC34CCCN3CCC4)nc3c(F)c(-c4ccc(F)c5sc(N)c(C#N)c45)ncc23)C1` [Example 916, (R)-2-amino-7-fluoro-4-(8-fluoro-4-(3-hydroxy-3-methylpiperidin-1-yl)-2-((tetrahydro-1H-pyrrolizin-7a(5H)-yl)methoxy)pyrido[4,3-d]pyrimidin-7-yl)benzo[b]thiophene-3-carbonitrile], the IC50 at KRas^G12D was 78 nM; on KRas^G12R it was 132 nM; on KRas^G12V, 120 nM; in experiment [1], more than 10000 nM; in [2], more than 10000 nM; in experiment [4], 8970 nM.
